From publication doi:10.1101/2021.02.18.431786v1 (biorxiv, 2021)

target: ABCG2 (Homo sapiens, UniProt Q9UNQ0); assay: biochemical
Sequence (Q9UNQ0 whole entry): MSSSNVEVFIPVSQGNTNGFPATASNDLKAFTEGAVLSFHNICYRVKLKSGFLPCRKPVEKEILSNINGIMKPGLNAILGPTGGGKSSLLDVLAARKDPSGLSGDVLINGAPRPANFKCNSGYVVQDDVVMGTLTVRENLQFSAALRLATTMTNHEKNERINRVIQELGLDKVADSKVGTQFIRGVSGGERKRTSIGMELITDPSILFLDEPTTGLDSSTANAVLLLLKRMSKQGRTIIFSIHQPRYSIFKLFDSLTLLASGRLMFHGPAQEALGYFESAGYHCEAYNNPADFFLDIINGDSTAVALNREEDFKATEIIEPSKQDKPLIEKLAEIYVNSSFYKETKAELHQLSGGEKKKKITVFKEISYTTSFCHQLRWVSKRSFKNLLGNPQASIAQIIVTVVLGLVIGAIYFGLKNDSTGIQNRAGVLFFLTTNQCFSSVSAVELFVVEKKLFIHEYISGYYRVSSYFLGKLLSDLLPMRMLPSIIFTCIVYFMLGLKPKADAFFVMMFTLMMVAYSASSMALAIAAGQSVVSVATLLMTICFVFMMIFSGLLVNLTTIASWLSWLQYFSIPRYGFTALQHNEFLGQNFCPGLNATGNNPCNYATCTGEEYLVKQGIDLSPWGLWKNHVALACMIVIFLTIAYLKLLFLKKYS

EC50 | Compound
0.08 ± 0.01 µM | COc1cc2c(cc1OC)CN(CCc1ccc(NC(=O)c3cc(OC)c(OC)cc3NC(=O)c3cnc4ccccc4c3)cc1)CC2 [tariquidar]
11.7 ± 0.3 µM | CC[C@@]1(O)C(=O)OCc2c1cc1n(c2=O)Cc2cc3c(CN(C)C)c(O)ccc3nc2-1 [topotecan]

Compound | EC50
O=C1c2c(O)ccc(O)c2C(=O)c2c(NCCNCCO)ccc(NCCNCCO)c21 [mitoxantrone] | 18.3 ± 2.2 µM
